The source of these data is ChEMBL document CHEMBL1158683, “Cytotoxic sesquiterpenoids from Ratibida columnifera” (1999).

≈ marks a conversion by molar mass, not a printed value. Calls of active or inactive are those of the source. No cut-off for these calls is given here. A value given as a limit tells only on which side of the number the result lay.

System in one assay: not listed separately
The assay can be described thus: Cytotoxicity against human BC1 cells. The format is functional. The following applies: read-out: ED50 (the source's name).
As to `C=C1C(=O)O[C@@H]2[C@@H]1CC(=O)[C@H](C)[C@@](O)(C(=O)/C=C/C)[C@H]2OC(=O)C(C)CC` (stereo partly drawn), the EC50 was found to be 0.5 µg/mL (≈ 1.32 µM).

Consider `C=C[C@@](C)(O)C[C@@H](O)/C=C(\C)CC/C=C(\C)COC(C)=O`, for which the EC50 turned out to be 8.7 µg/mL (≈ 29.4 µM).

In a further assay the test system is HT. Kind of assay: Cytotoxicity against human HT cells. The format is functional. Particulars: read-out: ED50 (the source's name).
Consider `C=C[C@@](C)(O)C[C@@H](O)/C=C(\C)CC/C=C(\C)COC(C)=O`, for which the EC50 came to 9.5 µg/mL (≈ 32.1 µM).

The next assay relates to Lu1. Kind of assay: Cytotoxicity against human Lu1 cells. The format is functional. The following applies: read-out: ED50 (the source's name).
Turning to `C=C1C(=O)O[C@@H]2[C@@H]1CC(=O)[C@H](C)[C@@](O)(C(=O)/C=C/C)[C@H]2OC(=O)C(C)CC` (stereo partly drawn), the EC50 was determined as 2.3 µg/mL (≈ 6.08 µM).

As to `C=C[C@@](C)(O)C[C@@H](O)/C=C(\C)CC/C=C(\C)COC(C)=O`, the EC50 is above 20 µg/mL.

Another assay has as its system Col2. The assay can be described thus: Cytotoxicity against human Col2 cells. Particulars: read-out: ED50 (the source's name). The format is functional.
With `C=C1C(=O)O[C@@H]2[C@@H]1CC(=O)[C@H](C)[C@@](O)(C(=O)/C=C/C)[C@H]2OC(=O)C(C)CC` (stereo partly drawn), the EC50 amounted to 1.2 µg/mL (≈ 3.17 µM).

Turning to `C=C[C@@](C)(O)C[C@@H](O)/C=C(\C)CC/C=C(\C)COC(C)=O`, the EC50 stood at 6.2 µg/mL (≈ 20.9 µM).

The subject of the next assay is KB. Kind of assay: Cytotoxicity against human KB cells. The format is functional. Particulars: read-out: ED50 (the source's name).
In the case of `C=C1C(=O)O[C@@H]2[C@@H]1CC(=O)[C@H](C)[C@@](O)(C(=O)/C=C/C)[C@H]2OC(=O)C(C)CC` (stereo partly drawn), the EC50 came to 1.1 µg/mL (≈ 2.91 µM).

For `C=C[C@@](C)(O)C[C@@H](O)/C=C(\C)CC/C=C(\C)COC(C)=O`, the EC50 was found to be 3.5 µg/mL (≈ 11.8 µM).

System in a further assay: not listed separately
The assay can be described thus: Cytotoxicity against human multidrug-resistant KB-V1+ cells in presence of vinblastine. In kind it is functional. Particulars: read-out: ED50 (the source's name).
As to `C=C1C(=O)O[C@@H]2[C@@H]1CC(=O)[C@H](C)[C@@](O)(C(=O)/C=C/C)[C@H]2OC(=O)C(C)CC` (stereo partly drawn), the EC50 is 1.1 µg/mL.

In the case of `C=C[C@@](C)(O)C[C@@H](O)/C=C(\C)CC/C=C(\C)COC(C)=O`, the EC50 was above 20 µg/mL.

System in a further assay: not listed separately
The assay can be described thus: Cytotoxicity against human multidrug-resistant KBV1 cells in absence of vinblastine. In kind it is functional. Particulars: KB-V1, read-out: ED50 (the source's name).
As to `C=C1C(=O)O[C@@H]2[C@@H]1CC(=O)[C@H](C)[C@@](O)(C(=O)/C=C/C)[C@H]2OC(=O)C(C)CC` (stereo partly drawn), the EC50 came out at 2 µg/mL (≈ 5.29 µM).

As to `C=C[C@@](C)(O)C[C@@H](O)/C=C(\C)CC/C=C(\C)COC(C)=O`, the EC50 was found to be 10.9 µg/mL (≈ 36.8 µM).

In a further assay the test system is LNCaP. Kind of assay: Cytotoxicity against hormone-dependent human LNCaP cells. The following applies: read-out: ED50 (the source's name). The format is functional.
For the molecule `C=C1C(=O)O[C@@H]2[C@@H]1CC(=O)[C@H](C)[C@@](O)(C(=O)/C=C/C)[C@H]2OC(=O)C(C)CC` (stereo partly drawn), the EC50 is 0.4 µg/mL (≈ 1.06 µM).

On to `C=C[C@@](C)(O)C[C@@H](O)/C=C(\C)CC/C=C(\C)COC(C)=O`, for which the EC50 was above 20 µg/mL.

System in the next assay: not listed separately
The assay can be described thus: Cytotoxicity against human U373 cells. The format is functional, U-373MG ATCC. The following applies: U373 MG, read-out: ED50 (the source's name).
For `C=C[C@@](C)(O)C[C@@H](O)/C=C(\C)CC/C=C(\C)COC(C)=O`, the EC50 came out at 6.3 µg/mL (≈ 21.3 µM).

The subject of the next assay is ASK. The assay can be described thus: Cytotoxicity against human ASK cells at 20 ug/mL. In kind it is functional, cell-based.
Settings: not given
Turning to `C=C1C(=O)O[C@@H]2[C@@H]1CC(=O)[C@H](C)[C@@](O)(C(=O)/C=C/C)[C@H]2OC(=O)C(C)CC` (stereo partly drawn), the result was inactive.

On to `C=C[C@@](C)(O)C[C@@H](O)/C=C(\C)CC/C=C(\C)COC(C)=O`, for which the result was inactive.
